Measurements published in article PMC7369637, “Inhibition of Resistance-Refractory P. falciparum Kinase PKG Delivers Prophylactic, Blood Stage, and Transmission-Blocking Antiplasmodial Activity” (Cell Chemical Biology, 2020).
Entries after “also recorded” stand apart in the source; their conditions may differ.

Tests used:
[1] = tested on: Pf NF54 female gametes; assay: Dual gamete formation assay, female gamete formation; format: cell-based, Plasmodium falciparum; settings: carry-over and wash-out
Protocol: Pf NF54 gametocytes were generated as reported elsewhere ([Delves et al., 2016]). Briefly, static cultures of unsynchronized asexual parasites were continuously maintained as above. Parasites were cultured at 1% ring-stage parasitemias and 4% (v/v) hematocrit prior to the induction of gametocytes. To prepare gametocytes, 75% of the media was replaced daily for 14 subsequent days without adding fresh RBCs. During this process the temperature was kept strictly constant, as the rate of exflagellation is highly temperature-dependent. Between days 1 and 4 after culture induction, the asexual parasitemias increased rapidly to a peak. By day 7, as the asexual population waned, early-stage gametocytes became observable. By day 8, gametocyte maturation had progressed, and by day 14 morphologically distinguishable, mature stage V male and female gametocytes were present. […] Control reactions contained DMSO or 20 μM methylene blue (as negative and positive controls, respectively). […] After imaging, the plate was incubated at 18°C for a further 24 h to allow female gametes to maximally express Pfs25, followed by fluorescence microscopy imaging using a 10× objective. Both time lapse images of exflagellation and fluorescence images of female gametes were automatically quantified using custom scripts in ICY BioImage Analysis ([Delves et al., 2016]).

[2] = tested on: Pf 3D7-A10 ABS parasites; assay: 72-h ABS growth inhibition assay, 3D7-A10; format: cell-based; settings: Plasmodium falciparum, 3D7, Line 3D7-A10 wild-type
Protocol: Synchronicity was achieved using three rounds of sorbitol treatment on early rings, spaced 48 h apart, followed by magnetic purification of segmented schizonts following the final sorbitol treatment. […] Assays were repeated on at least three independent occasions (each with technical duplicates) and statistical significance was assessed using Mann Whitney U tests.

[3] = tested on: NF54 CDPK1T145M mutant line; assay: ABS susceptibility, CDPK1 gatekeeper mutant line; format: cell-based; settings: Plasmodium falciparum, NF54, read-out: Mean IC50
Protocol: Synchronicity was achieved using three rounds of sorbitol treatment on early rings, spaced 48 h apart, followed by magnetic purification of segmented schizonts following the final sorbitol treatment. Parasites were highly synchronous to within a 3 h window of development. Assays were repeated on at least three independent occasions (each with technical duplicates) and statistical significance was assessed using Mann Whitney U tests.

CC(C)(CN)c1nc(-c2ccc(Cl)c(O)c2)c(-c2ccncc2)[nH]1 [MMV030084]
Activity against female gametes [1]: ambiguous results; also recorded: little to no activity | IC50 [2]: 0.178 µM | IC50 [3]: 0.09 µM
